# Reference: patent US11549147B2, “Treatment of atopic dermatitis with tradipitant” (VANDA PHARMACEUTICALS INC., priority 2017, dated 2023)
# Test system: treatment-resistant pruritus associated with atopic dermatitis, high or low baseline IgE
# Assay: Exploratory analysis of study NCT02651714 by baseline IgE level (Example 4)
# Type: in vivo, human
# Set-up: Average Itch NRS / Average Itch NRS, Diff / Sleep Disturbance / Extension / Excoriations, Diff / Erythema / Skin dryness / Skin dryness, Diff / Itch / Itch, Diff / Insomnia / Insomnia, Diff / CGIC / CGIC, Diff / VRS / VRS, Diff / Average Itch VAS / Average Itch VAS, Diff / worst Itch VAS, Diff: scale not given here
# Details: 85 mg bid; for Average Itch NRS, Diff / Average Itch VAS, Diff / CGIC, Diff / EASI, Diff / Erythema, Diff / Excoriations, Diff / Extension, Diff / Insomnia, Diff / Intensity, Diff / Itch, Diff / Lichenification, Diff / Log EASI, Diff / Objective SCORAD, Diff / Oozing/crusting, Diff / PBI, Diff / PGIC AD, Diff / PGIC ITCH, Diff / SCORAD Total, Diff / Skin dryness, Diff / Sleep Disturbance, Diff / Subjective SCORAD, Diff / VRS, Diff / Worst Itch NRS Day, Diff / Worst Itch NRS Night, Diff / Worst Itch NRS, Diff / edema/Papules, Diff / worst Itch VAS >= 30, Diff / worst Itch VAS, Diff / worst ItchVAS >= 40, Diff / EASI 75, Diff / SCORAD 50, Diff: Diff tradipitant vs placebo; for Average Itch NRS / Average Itch VAS / EASI / Log EASI / Objective SCORAD / SCORAD Total / Sleep Disturbance / Subjective SCORAD / VRS / Worst Itch NRS / Worst Itch NRS Day / Worst Itch NRS Night / worst Itch VAS: week 8, vs baseline; for worst Itch VAS >= 30 / worst ItchVAS >= 40: Fisher; for Erythema / Excoriations / Extension / Intensity / Lichenification / Oozing/crusting / Skin dryness / edema/Papules: objective SCORAD parameter; for Insomnia / Itch: subjective SCORAD parameter
# Experimental: In the study described above in Example 3, an exploratory analysis is conducted to analyze Immunoglobulin E (IgE) levels and the effect of treatment with tradipitant on atopic dermatitis and pruritus. For purposes of the analysis, study participants having an IgE level greater than or equal to 100 kU/L are deemed to have a high IgE level, while study participants having an IgE level of less than 100 kU/L are deemed to have a low IgE level. The baseline mean and range SCORAD total for each of the total study population, the high IgE group, and the low IgE group are shown below in Table 5.
# The mean and range of SCORAD totals shown in Table 5 illustrate that the study population spans different strata of disease severity, from mild to severe. Table 5 also illustrates the similarity in disease severity between the high IgE and low IgE groups. Table 6 (below) presents the study results of tradipitant in treatment-resistant pruritus associated with atopic dermatitis in individuals having high baseline IgE levels (IgE≥100 kU/L), while Table 7 (below) presents the study results of tradipitant in treatment-resistant pruritus associated with atopic dermatitis in individuals having low baseline IgE levels (IgE<100 kU/L). The data in Tables 6-7 represent a separation by IgE level of the data appearing in Table 4 above.
# For purposes of the present analysis, individuals having an IgE level greater than or equal to 100 kU/L are considered to have high IgE levels, while individuals having an IgE level of less than 100 kU/L are considered to have low IgE levels.
# [1] = high baseline IgE (≥100 kU/L), week 8
# [2] = high baseline IgE (≥100 kU/L), week 8, LOCF
# [3] = low baseline IgE (<100 kU/L), week 8
# [4] = low baseline IgE (<100 kU/L), week 8, LOCF
# [5] = high baseline IgE (≥100 kU/L), ITT, week 8
# [6] = high baseline IgE (≥100 kU/L), ITT
# [7] = high baseline IgE (≥100 kU/L), ITT, week 8, LOCF
# [8] = low baseline IgE (<100 kU/L), ITT, week 8
# [9] = low baseline IgE (<100 kU/L), ITT
# [10] = low baseline IgE (<100 kU/L), ITT, week 8, LOCF
compound,measurement,setting,value
O=C(c1ccccc1Cl)c1cccnc1-c1nnn(Cc2cc(C(F)(F)F)cc(C(F)(F)F)c2)c1-c1ccncc1 [Tradipitant],"Average Itch NRS, Diff",[1],−1.6
same,"Average Itch VAS, Diff",[1],−14.97
same,"CGIC, Diff",[1],−0.96
same,"EASI, Diff",[1],−1.13
same,"Erythema, Diff",[1],−0.15
same,"Excoriations, Diff",[1],−0.56
same,"Extension, Diff",[1],−0.72
same,"Insomnia, Diff",[1],−1.12
same,"Intensity, Diff",[1],−1.75
same,"Itch, Diff",[1],−2.04
same,"Lichenification, Diff",[1],−0.27
same,"Log EASI, Diff",[1],−0.46
same,"Objective SCORAD, Diff",[1],−6.4
same,"Oozing/crusting, Diff",[1],−0.23
same,"PBI, Diff",[1],0.67
same,"PGIC AD, Diff",[1],−0.91
same,"PGIC ITCH, Diff",[1],−0.82
same,"SCORAD Total, Diff",[1],−9.9
same,"Skin dryness, Diff",[1],−0.27
same,"Sleep Disturbance, Diff",[1],−1.7
same,"Subjective SCORAD, Diff",[1],−3.1
same,"VRS, Diff",[1],−0.5597
same,"Worst Itch NRS Day, Diff",[1],−2.06
same,"Worst Itch NRS Night, Diff",[1],−2.14
same,"Worst Itch NRS, Diff",[1],−2.1
same,"edema/Papules, Diff",[1],−0.39
same,"worst Itch VAS >= 30, Diff",[1],36.3%
same,"worst Itch VAS, Diff",[1],−25.7
same,"worst ItchVAS >= 40, Diff",[1],28.4%
same,"EASI 75, Diff",[2],18.3%
same,"SCORAD 50, Diff",[2],36.6%
same,"Average Itch NRS, Diff",[3],0.4
same,"Average Itch VAS, Diff",[3],6.8
same,"CGIC, Diff",[3],−0.3
same,"EASI, Diff",[3],−0.47
same,"Erythema, Diff",[3],−0.31
same,"Excoriations, Diff",[3],−0.24
same,"Extension, Diff",[3],−0.94
same,"Insomnia, Diff",[3],0.29
same,"Intensity, Diff",[3],−0.99
same,"Itch, Diff",[3],0.13
same,"Lichenification, Diff",[3],−0.03
same,"Log EASI, Diff",[3],−0.21
same,"Objective SCORAD, Diff",[3],−3.7
same,"Oozing/crusting, Diff",[3],−0.18
same,"PBI, Diff",[3],0.5
same,"PGIC AD, Diff",[3],−0.6
same,"PGIC ITCH, Diff",[3],−0.48
same,"SCORAD Total, Diff",[3],−2.8
same,"Skin dryness, Diff",[3],−0.40
same,"Sleep Disturbance, Diff",[3],0.2
same,"Subjective SCORAD, Diff",[3],0.43
same,"VRS, Diff",[3],−0.23
same,"Worst Itch NRS Day, Diff",[3],0.43
same,"Worst Itch NRS Night, Diff",[3],0.08
same,"Worst Itch NRS, Diff",[3],0.3
same,"edema/Papules, Diff",[3],0.08
same,"worst Itch VAS >= 30, Diff",[3],−3.2%
same,"worst Itch VAS, Diff",[3],−0.9
same,"worst ItchVAS >= 40, Diff",[3],5.6%
same,"EASI 75, Diff",[4],1.8%
same,"SCORAD 50, Diff",[4],7.7%
same,CGIC,[5],2.6
same,PBI,[5],1.7
same,PGIC AD,[5],3.0
same,PGIC ITCH,[5],2.7
same,Average Itch NRS,[6],−3.4
same,Average Itch VAS,[6],−41.9
same,EASI,[6],−3.78
same,Log EASI,[6],−0.8
same,Objective SCORAD,[6],−11.7
same,SCORAD Total,[6],−20.3
same,Sleep Disturbance,[6],−3.5
same,Subjective SCORAD,[6],−8.7
same,VRS,[6],−1.529
same,Worst Itch NRS,[6],−3.6
same,Worst Itch NRS Day,[6],−3.7
same,Worst Itch NRS Night,[6],−3.8
same,worst Itch VAS,[6],−43.9
same,worst Itch VAS >= 30,[5],57.9%
same,worst ItchVAS >= 40,[5],50.0%
same,EASI 75,[7],23.7%
same,SCORAD 50 (patients with at least a 50 percent reduction of SCORAD),[7],47.4%
same,SCORAD 50 (patients with at least a 50 percent reduction of SCORAD),"high baseline IgE (≥100 kU/L), ITT, week 8, LOCF, listed as tradipitant",47%
same,CGIC,[8],2.7
same,PBI,[8],1.98
same,PGIC AD,[8],2.4
same,PGIC ITCH,[8],2.3
same,Average Itch NRS,[9],−2.9
same,Average Itch VAS,[9],−39.3
same,EASI,[9],−2.7
same,Log EASI,[9],−0.67
same,Objective SCORAD,[9],−13.1
same,SCORAD Total,[9],−19.9
same,Sleep Disturbance,[9],−3.0
same,Subjective SCORAD,[9],−7.2
same,VRS,[9],−1.54
same,Worst Itch NRS,[9],−2.9
same,Worst Itch NRS Day,[9],−2.9
same,Worst Itch NRS Night,[9],−3.0
same,worst Itch VAS,[9],−44
same,worst Itch VAS >= 30,[8],55.6%
same,worst ItchVAS >= 40,[8],55.6%
same,EASI 75,[10],19.4%
same,SCORAD 50,[10],40.0%
same,Erythema,[5],−0.46
same,Excoriations,[5],−0.80
same,Extension,[5],−2.4
same,Intensity,[5],−3.2
same,Lichenification,[5],−0.42
same,Oozing/crusting,[5],−0.53
same,Skin dryness,[5],−0.62
same,edema/Papules,[5],−0.62
same,Erythema,[8],−0.74
same,Excoriations,[8],−0.74
same,Extension,[8],−1.9
same,Intensity,[8],−3.6
same,Lichenification,[8],−0.49
same,Oozing/crusting,[8],−0.61
same,Skin dryness,[8],−0.73
same,edema/Papules,[8],−0.43
same,"treatment effect in itch and disease severity, high IgE group compared to low IgE group",regardless of IgE cutoff (50 to 300 kU/L),consistently stronger treatment effect
same,Insomnia,[5],−4.0
same,Itch,[5],−4.7
same,Insomnia,[8],−3.2
same,Itch,[8],−4.0
